The structures appear in SMILES notation. Where only a bound is given, the exact number is not on record here.

Assay [1] deals with T1, purified LasB protein from P. aeruginosa (Pseudomonas aeruginosa, UniProt P14756).
T1 construct: purchased Merck or Charles River Laboratories
Description: Fluorometric assay to determine Ki (Abz-Ala-Gly-Leu-Ala-p-Nitro-Benzyl-Amide substrate). The assay is classed as biochemical. The essentials: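 Purified P. aeruginosa LasB (10–140 ng/ml) with 250 µM Abz-Ala-Gly-Leu-Ala-p-nitrobenzylamide in 50 mM Tris-HCl pH 7.4, 2.5 mM CaCl2, 0.01% Triton X100, 37 °C; hydrolysis fluorescence (Ex 340/Em 415 nm) followed over 30 min, inhibitor 0.0016–200 µM. Ki = IC50/(1+[S]/Km), Km 214 µM.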

Assay [2] addresses T2, LasB (Pseudomonas aeruginosa, UniProt P14756).
T2 construct: uses as source of enzyme dialysed supernatant from P. aeruginosa PAO1; endogenous in cells; host or cells: P. aeruginosa PAO1 culture supernatant, filtered and dialysed
Description: Elastin assay to determine % inhibition (Elastin Congo-Red, dialysed culture supernatant). The assay is classed as biochemical, P. aeruginosa PAO1. The conditions noted are these: read-out: Elastin hydrolysis % inhibition @ 50 / 25 µM inhibitor concentration. As for the experimental part: Experiments were therefore conducted (1) to measure the potency of inhibition of compounds of the invention against purified Pseudomonas aeruginosa LasB enzyme and also experiments were conducted (2) to measure the ability of compounds of the invention to inhibit LasB-catalysed elastin degradation. The first assay uses a commercial fluorescent synthetic peptide and purified LasB enzyme. The LasB hydrolysis kinetics are measured allowing the determination of the IC50 and Ki of the inhibitors; the second is a more physiological assay using dialysed Pseudomonas aeruginosa supernatant as source of enzyme, plus its natural substrate Elastin. It is an "end point assay" that determines the percentage of LasB inhibition by each compound for one particular time point and inhibitor concentration. Technical details are described below:
The Elastin assay uses as source of enzyme dialysed supernatant from P. aeruginosa PAO1 and the Elastin Congo-Red as substrate. The natural LasB substrate, elastin, is complexed with the congo-red dye (Elastin Congo-Red, ECR). The elastolysis activity from the culture supernatant will degrade elastin and release the congo-red dye into the supernatant. This red dye release can be measured with a spectrophotometer.
Method: To determine LasB elastase activity and assess compound inhibition, an overnight culture of P. aeruginosa strain PAO1 is diluted in LB medium. After reaching an OD600nm of 0.6, this culture is diluted and incubated for additional 18-24 hours in a shaking incubator. Culture supernatants are recovered by centrifugation and filtrated through a […] filter. These supernatants are dialysed (filtration molecules < 20kDa) into a 50 mM Tris-HCl pH 7.4, 2.5 mM CaCl2 solution at 4°C under agitation for 24 hours. Supernatant dialysed is then mixed volume/volume with the ECR suspension (20 mg/mL of ECR in 100 mM Tris-HCl pH 7.4 buffer supplemented with 1 mM CaCl2) supplemented with Triton X100 (final concentration of 0.01%) in presence of DMSO (positive control) and/or different concentrations of compound (routinely 50 to 1.56 µM). As a negative control, the dialysed supernatant is replaced by Tris-HCl solution (50 mM Tris-HCl pH 7.4, 2.5 mM CaCl2). The mixed reaction is then incubated overnight in a 37°C shaking incubator. The reaction supernatant is recovered by centrifugation and the release of congo-red is measured by its absorbance at 495 nm (OD495nm).
Percentage inhibition is determined using the following equation: ((OD495nmvalue of positive control−OD495nmvalue of negative control)−(OD495nmvalue of treated supernatant−OD495nmvalue of positive control))/(OD495nmvalue of positive control−OD495nmvalue of negative control) × 100. [formula]

T1 sequence (P14756 198-498): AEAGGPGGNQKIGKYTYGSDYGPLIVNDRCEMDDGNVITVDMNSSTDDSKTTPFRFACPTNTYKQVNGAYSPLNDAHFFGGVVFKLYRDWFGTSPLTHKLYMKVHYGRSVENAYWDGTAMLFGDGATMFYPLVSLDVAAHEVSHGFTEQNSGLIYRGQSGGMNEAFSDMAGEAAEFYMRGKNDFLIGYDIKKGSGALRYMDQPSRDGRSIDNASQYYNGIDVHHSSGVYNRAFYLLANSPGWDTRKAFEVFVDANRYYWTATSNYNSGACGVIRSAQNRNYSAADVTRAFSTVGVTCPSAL
T2 sequence (P14756 198-498): as above

On to `CS(=O)(=O)c1cc(-c2csc(CNC(=O)C3(CC(=O)O)Cc4ccccc4C3)n2)ccc1OCCCN1CCOCC1` [Example 60, 2-[2-[[4-[3-methylsulfonyl-4-(3-morpholinopropoxy)phenyl]thiazol-2-yl]methylcarbamoyl]indan-2-yl]acetic acid], for which the Ki in assay [1] is less than 50 nM. In addition, the inhibition at 25 µM in assay [2] was 60 to 75%.

Compound `C[N+]1(CCCOc2ccc(-c3csc(CNC(=O)C4(CC(=O)[O-])Cc5ccccc5C4)n3)cc2S(C)(=O)=O)CCOCC1` [Example 61, 2-[2-[[4-[4-[3-(4-methylmorpholin-4-ium-4-yl)propoxy]-3-methylsulfonyl-phenyl]thiazol-2-yl]methylcarbamoyl]indan-2-yl]acetate] yielded a Ki in assay [1] of 50 to 200 nM. The inhibition at 25 µM in assay [2] lay within 60 to 75%.

In assay [1], `C[N+]1(CCCOc2ccc(-c3csc(CNC(=O)C4(CC(=O)[O-])Cc5cc(F)c(F)cc5C4)n3)cc2S(C)(=O)=O)CCOCC1` [Example 62, 2-[5,6-difluoro-2-[[4-[4-[3-(4-methylmorpholin-4-ium-4-yl)propoxy]-3-methylsulfonyl-phenyl]thiazol-2-yl]methylcarbamoyl]indan-2-yl]acetate] displayed a Ki of 50 to 200 nM. Moreover, the inhibition at 25 µM in assay [2] lay in the range of 60 to 75%.

In assay [1], `COc1cc(OCC(=O)N2CCN(C)CC2)ccc1-c1csc(CNC(=O)C2(CC(=O)O)Cc3ccccc3C2)n1` [Example 63, 2-[2-[[4-[2-methoxy-4-[2-(4-methylpiperazin-1-yl)-2-oxo-ethoxy]phenyl]thiazol-2-yl]methylcarbamoyl]indan-2-yl]acetic acid] came in with a Ki of 50 to 200 nM. Moreover, in assay [2], the inhibition at 25 µM is greater than 75%.

Regarding `COc1cc(OCC(=O)N2CC([N+](C)(C)C)C2)ccc1-c1csc(CNC(=O)C2(CC(=O)[O-])Cc3cc(F)c(F)cc3C2)n1` [Example 64, 2-[5,6-difluoro-2-[[4-[2-methoxy-4-[2-oxo-2-[3-(trimethylammonio)azetidin-1-yl]ethoxy]phenyl]thiazol-2-yl]methylcarbamoyl]indan-2-yl]acetate], the Ki in assay [1] lay in the range of 50 to 200 nM. The inhibition at 25 µM in assay [2] fell in the range of 60 to 75%.

For `COc1cc(OCC[N+]2(C)CCOCC2)ccc1-c1csc(CNC(=O)C2(CC(=O)[O-])Cc3ccccc3C2)n1` [Example 67, 2-[2-[[4-[2-methoxy-4-[2-(4-methylmorpholin-4-ium-4-yl)ethoxy]phenyl]thiazol-2-yl]methylcarbamoyl]indan-2-yl] acetate], the Ki in assay [1] lay within 50 to 200 nM. In assay [2], the inhibition at 25 µM lay in the range of 60 to 75%.

With `COc1cc(OCC[N+]2(C)CCOCC2)ccc1-c1csc(CNC(=O)C2(CC(=O)[O-])Cc3cc(F)c(F)cc3C2)n1` [Example 68, 2-[5,6-difluoro-2-[[4-[2-methoxy-4-[2-(4-methylmorpholin-4-ium-4-yl)ethoxy]phenyl]thiazol-2-yl]methylcarbamoyl]indan-2-yl]acetate], the Ki in assay [1] lay in the range of 50 to 200 nM. Besides, in assay [2], the inhibition at 25 µM lay within 60 to 75%.

With `COc1cc(OCCC[N+]2(C)CCOCC2)ccc1-c1csc(CNC(=O)C2(CC(=O)[O-])Cc3ccccc3C2)n1` [Example 69, 2-[2-[[4-[2-methoxy-4-[3-(4-methylmorpholin-4-ium-4-yl)propoxy]phenyl]thiazol-2-yl]methylcarbamoyl]indan-2-yl]acetate], the Ki in assay [1] was in the range of 50 to 200 nM. Further, the inhibition at 25 µM in assay [2] was in the range of 10 to 60%.

Consider `COc1cc(OCCC[N+]2(C)CCOCC2)ccc1-c1csc(CNC(=O)C2(CC(=O)[O-])Cc3cc(F)c(F)cc3C2)n1` [Example 70, 2-[5,6-difluoro-2-[[4-[2-methoxy-4-[3-(4-methylmorpholin-4-ium-4-yl)propoxy]phenyl]thiazol-2-yl]methylcarbamoyl]indan-2-yl]acetate], for which the Ki in assay [1] was 50 to 200 nM. Moreover, the inhibition at 25 µM in assay [2] is 60 to 75%.

In assay [1], `COc1cc(OCCCN2CCOCC2)ccc1-c1csc(CNC(=O)C2(CC(=O)O)Cc3ccccc3C2)n1` [Example 71, 2-[2-[[4-[2-methoxy-4-(3-morpholinopropoxy)phenyl]thiazol-2-yl]methylcarbamoyl]indan-2-yl]acetic acid] returned a Ki of less than 50 nM. The inhibition at 25 µM in assay [2] is greater than 75%.

`COc1cc(OCCCN2CCCC2)ccc1-c1csc(CNC(=O)C2(CC(=O)O)Cc3cc(F)c(F)cc3C2)n1` [Example 72, 2-[5,6-difluoro-2-[[4-[2-methoxy-4-(3-pyrrolidin-1-ylpropoxy)phenyl]thiazol-2-yl]methylcarbamoyl]indan-2-yl]acetic acid]: the Ki in assay [1] is less than 50 nM. The inhibition at 25 µM in assay [2] fell in the range of 10 to 60%.

The compound `COc1cc(OCCC[N+]2(C)CCCC2)ccc1-c1csc(CNC(=O)C2(CC(=O)[O-])Cc3cc(F)c(F)cc3C2)n1` [Example 73, 2-[5,6-difluoro-2-[[4-[2-methoxy-4-[3-(1-methylpyrrolidin-1-ium-1-yl)propoxy]phenyl]thiazol-2-yl]methylcarbamoyl]indan-2-yl)acetate] returned a Ki in assay [1] of 50 to 200 nM. Moreover, in assay [2], the inhibition at 25 µM is 60 to 75%.

In turn, `COc1cc(OCc2ccncc2)ccc1-c1csc(CNC(=O)C2(CC(=O)O)Cc3ccccc3C2)n1` [Example 74, 2-[2-[[4-[2-methoxy-4-(4-pyridylmethoxy)phenyl]thiazol-2-yl]methylcarbamoyl]indan-2-yl]acetic acid] displayed a Ki in assay [1] of less than 50 nM. Moreover, in assay [2], the inhibition at 25 µM is greater than 75%.

In turn, `COc1cc(OCc2cc[n+](C)cc2)ccc1-c1csc(CNC(=O)C2(CC(=O)[O-])Cc3ccccc3C2)n1` [Example 75, 2-[2-[[4-[2-methoxy-4-[(1-methylpyridin-1-ium-4-yl)methoxy]phenyl]thiazol-2-yl]methylcarbamoyl]indan-2-yl]acetate] returned a Ki in assay [1] of 50 to 200 nM. Moreover, the inhibition at 25 µM in assay [2] lay in the range of 60 to 75%.

In the case of `COc1cc(OCCN2CCOCC2)ccc1-c1csc(CNC(=O)C2(CC(=O)O)Cc3ccccc3C2)n1` [Example 76, 2-[2-[[4-[2-methoxy-4-(2-morpholinoethoxy)phenyl]thiazol-2-yl]methylcarbamoyl]indan-2-yl]acetic acid], the Ki in assay [1] was less than 50 nM. In addition, the inhibition at 25 µM in assay [2] was greater than 75%.

The compound `COc1cc(OCc2ccc[n+](C)c2)ccc1-c1csc(CNC(=O)C2(CC(=O)[O-])Cc3ccccc3C2)n1` [Example 77, 2-[2-[[4-[2-methoxy-4-[(1-methylpyridin-1-ium-3-yl)methoxy]phenyl]thiazol-2-yl]methylcarbamoyl]indan-2-yl]acetate] had a Ki in assay [1] of 50 to 200 nM. In addition, the inhibition at 25 µM in assay [2] was in the range of 10 to 60%.

In assay [1], `COc1cc(OCc2cccnc2)ccc1-c1csc(CNC(=O)C2(CC(=O)O)Cc3ccccc3C2)n1` [Example 78, 2-[2-[[4-[2-methoxy-4-(3-pyridylmethoxy)phenyl]thiazol-2-yl]methylcarbamoyl]indan-2-yl]acetic acid] yielded a Ki of less than 50 nM. In addition, the inhibition at 25 µM in assay [2] was greater than 75%.

Compound `COc1cc(OCC(=O)N2CC[N+](C)(C)CC2)ccc1-c1csc(CNC(=O)C2(CC(=O)[O-])Cc3ccccc3C2)n1` [Example 79, 2-[2-[[4-[4-[2-(4,4-dimethylpiperazin-4-ium-1-yl)-2-oxo-ethoxy]-2-methoxy-phenyl]thiazol-2-yl]methylcarbamoyl]indan-2-yl]acetate] gave an inhibition constant Ki in assay [1] of 50 to 200 nM. For the same compound, in assay [2], the inhibition at 25 µM was in the range of 60 to 75%.

Take `COc1cc(OCCCN(C)C)ccc1-c1csc(CNC(=O)C2(CC(=O)O)Cc3cc(F)c(F)cc3C2)n1` [Example 80, 2-[2-[[4-[4-[3-(dimethylamino)propoxy]-2-methoxyphenyl]thiazol-2-yl]methylcarbamoyl]-5,6-difluoro-indan-2-yl]acetic acid]: the Ki in assay [1] was in the range of 50 to 200 nM. For the same compound, the inhibition at 25 µM in assay [2] was in the range of 60 to 75%.

The compound `COc1cc(OCCC[N+](C)(C)C)ccc1-c1csc(CNC(=O)C2(CC(=O)[O-])Cc3cc(F)c(F)cc3C2)n1` [Example 81, 2-[5,6-difluoro-2-[[4-[2-methoxy-4-[3-(trimethylammonio)propoxy]phenyl]thiazol-2-yl]methylcarbamoyl]indan-2-yl] acetate] displayed a Ki in assay [1] of 50 to 200 nM. The inhibition at 25 µM in assay [2] lay within 60 to 75%.

As usually defined, the Ki is the dissociation constant of the complex between target and ligand, obtained from inhibition or displacement.

(Values after patent EP3628672A1 (priority 2018, dated 2020).)
